Source: patent US20250339377A1, “PHARMACEUTICAL COMPOSITION OF NUCLEOSIDE-DERIVED COMPOUND, PREPARATION METHOD THEREFOR, AND USE THEREOF” (SHENZHEN ANTIV PHARMA CO., LTD., priority 2022, published 2025)

Tests used:
Type in all cases: physicochemical
[1] = Compatibility of raw material and auxiliary material; conditions: 60° C., 25° C./90% RH, 40° C./75% RH, illumination; 30 days
Source text: Operation: Common auxiliary materials of solid oral dosage forms were selected to be mixed with the SHEN26 drug substance in different ratios, and the mixtures were placed under different conditions and separately taken out at different time points. The compatibility of the drug substance and the auxiliary materials was judged by taking the appearance, the hygroscopic weight gain, the content and the related substance as indexes. For the ratio of the raw and auxiliary materials, according to “Basic Technical Guidelines for Research of Chemical Drug Formulation” and the specification of the formulation, the auxiliary material with a relatively large amount was determined according to a ratio of main drug:diluent=1:5, the auxiliary material with a moderate amount (such as croscarmellose sodium) was mixed according to a ratio of main drug:disintegrant=1:1, and the auxiliary material with a relatively small amount (such as magnesium stearate) was mixed according to a ratio of main drug:lubricant=5:1. The manufacturer information of the raw and auxiliary materials in the compatibility experiment and the ratio of raw and auxiliary materials are shown in Table 16. […]

[2] = Micromeritic properties of API and formula powders
Source text: Detection of micromeritic properties: The micromeritic properties of the SHEN26 compound raw material and the micromeritic properties of the mixed powder obtained by directly mixing the SHEN26 compound and other auxiliary materials were detected.
Preparation method: pulverizing the compound SHEN26, sieving the compound (sieving separately with a 40-mesh sieve and a 60-mesh sieve), mixing with a pharmaceutically acceptable excipient, performing dry granulation, adding an external lubricant, mixing, and filling capsules to give a capsule of the compound SHEN26. Observation of phenomenon: After dry granulation, the micromeritic properties were examined, and the results are shown in Table 12. Dissolution detection: The compound SHEN26 capsules obtained in Example 4 were separately detected for the dissolution, and the results are shown in Table 13.

[3] = Stability investigation - related substance; conditions: API, package N/A, condition N/A
Description: 37167-054A and 37167-054B were packed as described in Table 17 and Table 18, then separately placed under illumination (open), 40° C./75% RH (open), and 40° C./75% RH (closed) conditions for 0 day, 10 days, and 30 days, and detected for the dissolution and related substance.

SMILES: CC(C)C(=O)OC[C@H]1O[C@@](C#N)(c2ccc3c(N)ncnn23)[C@H](O)[C@@H]1O [SHEN26]
- Compatibility with auxiliary materials (appearance, hygroscopic weight gain, content, related substance) [1]: good compatibility
- Angle of repose (°) [2]: 40.98 °
- Bulk density [2]: 0.53 g/mL
- Carr index (%) [2]: 27.40%
- Tap density [2]: 0.73 g/mL
- Related substance % RRT 0.37 [3]: 0.26%
- Related substance % RRT 0.54 [3]: 0.35%
- Related substance % RRT 1.03 [3]: 0.15%
- Related substance % RRT 1.30 [3]: 0.05%
- Total impurity % [3]: 0.81%
